Tests used:
Format in all cases: biochemical
cathepsin B = target: T1, cathepsin B (Homo sapiens, UniProt P07858); test: Cathepsin B enzyme inhibition in vitro (kinetic fluorescence assay); conditions: cathepsin B isolated from human liver vs calpain I
T1 construct: cathepsin B—isolated from human liver (Calbiochem #219362); purchased Calbiochem 219362; host or cells: human liver (tissue-derived)
Description: (§1) The following solutions and buffers were employed: • HBS (for 40 ml): 800 μl M HEPES; 2.16 ml 100 mM KCl; 4.8 ml 1M NaCl; 3.59 ml 5% glucose; 60 μl μM MgSO4; 400 μl 100 mM Na pyruvate, 28.19 ml water; pH 7.2-7.5. • lysis buffer (for 20 ml): 400 μl M Tris pH 8.2; 2.74 ml 1M NaCl; 520 μl 0.5M EDTA; 2 ml 10% triton X-100; 0.8 ml (=1:25) CompletePlus (1 tablet/2 ml H2O); 200 μl 100 mM Pefabloc; 13.34 ml water, pH 8.2. • TBST (10×) (for 1 l): 100 mM Tris (12.1 g); 1.5M NaCl (87 g); 1% Tween 20 (10 g), adjusted to pH 8. I Enzyme Inhibition In Vitro: • Testing for blockade of the corresponding enzymic activities was carried out by means of kinetic fluorescence assays (excitation 390 nm, emission 460 nm). • Apparent Ki values were calculated from the experimentally determined IC50 values by the Cheng-Prussoff relation assuming a reversible competitive enzyme inhibition. The Km values of the substrates used under the assay conditions indicated above were: 90 μM (Z-Phe-Arg-AMC, cathepsin B), 10 μM (Z-Gly-Pro-Arg-AMC, cathepsin K), 2 μM (Z-Phe-Arg-AMC, cathepsin L), and 30 μM (Z-Val-Val-Arg-AMC, cathepsin S). • The indicated Ki values are averages of the inhibition constants calculated on the basis of 2 to 4 independent dose-effect plots.
(§2) The following assays were used: • 1. Calpain I: • 20 nM calpain-I—isolated from human erythrocytes (Calbiochem #208713), 100 μM Suc-Leu-Tyr-AMC (Bachem #1-1355) as substrate in buffer with 62 mM imidazole, 0.3 mM CaCl2, 0.10% CHAPS, 0.05% BSA, 1 mM DTT at pH 7.3 and room temperature. • 2. Cathepsin B: • 0.25 nM cathepsin B—isolated from human liver (Calbiochem #219362), 100 μM Z-Phe-Arg-AMC (Bachem #I-1160) as substrate 50 mM MES, 2 mM EDTA, 0.05% Brij 35, 2.5 mM L-cysteine, pH 6.0, room temperature. • 3. Cathepsin K: • 3 nM cathepsin K—activated from recombinant human procathepsin K from E. coli (Calbiochem #342001), 10 μM Z-Gly-Pro-Arg-AMC (Biomol #P-142) as substrate in 50 mM MES, 2 mM EDTA, 0.05% Brij 35, 2.5 mM L-cysteine, pH 6.0, room temperature. • 4. Cathepsin L: • 1 nM cathepsin L—isolated from human liver (Calbiochem #219402), 2 μM Z-Phe-Arg-AMC (Bachem #1-1160) as substrate in 50 mM MES, 2 mM EDTA, 0.05% Brij 35, 2.5 mM L-cysteine, pH 6.0, room temperature. • 5. Cathepsin S: • 0.5 nM recombinant human cathepsin S from E. coli (Calbiochem #219343), 20 μM Z-Val-Val-Arg-AMC (Bachem #1-1540) as substrate in 50 mM MES, 2 mM EDTA, 0.05% Brij 35, 2.5 mM L-cysteine, pH 6.0, room temperature. • The results of the in vitro determination are indicated in Table 1. The following abbreviations are used in Table 1: • The “Calpain activity” column, ++ stands for a calpain Ki (Ki(calpain)) of ≦40 nM and + means: 40 nM<Ki(Calpain)≦100 nM. • The “Sel. cat. B” column indicates the Ki(cathepsin B)/Ki(calpain) ratio. In this connection, ++ means a Ki(cathepsin B)/Ki(calpain) ratio of ≧30 and + means 10≦Ki(cathepsin B)/Ki(calpain)<30. • The “Sel. cat. K” column indicates the Ki(cathepsin K)/Ki(calpain) ratio. In this connection, ++ means a Ki(cathepsin K)/Ki(calpain) ratio of ≧30 and + means 10≦Ki(cathepsin K)/Ki(calpain)<30. • The “Sel. cat. L” column indicates the Ki(cathepsin L)/Ki(calpain) ratio. In this connection, ++ means a Ki(cathepsin L)/Ki(calpain) ratio of ≧50 and + means 30≦Ki(cathepsin L)/Ki(calpain)<50. • The “Sel. cat. S” column indicates the Ki(cathepsin S)/Ki(calpain) ratio. In this connection, ++ means a Ki(cathepsin S)/Ki(calpain) ratio of ≧100 and + means 50≦Ki(cathepsin S)/Ki(calpain)<100.

cathepsin K = target: T2, cathepsin K (Homo sapiens, UniProt P43235); test: Cathepsin K enzyme inhibition in vitro (kinetic fluorescence assay); conditions: cathepsin K activated from recombinant human procathepsin K vs calpain I
T2 construct: purchased Calbiochem 342001; host or cells: E. coli
T2 sequence (P43235 115-329): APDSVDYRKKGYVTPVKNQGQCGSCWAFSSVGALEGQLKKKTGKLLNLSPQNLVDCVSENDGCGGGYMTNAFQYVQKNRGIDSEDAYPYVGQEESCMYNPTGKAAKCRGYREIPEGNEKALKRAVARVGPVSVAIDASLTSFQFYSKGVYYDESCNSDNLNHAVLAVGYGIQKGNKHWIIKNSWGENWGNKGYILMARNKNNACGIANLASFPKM
Description: as §1, §2

cathepsin L = target: T3, cathepsin L (Homo sapiens, UniProt P07711); test: Cathepsin L enzyme inhibition in vitro (kinetic fluorescence assay); conditions: cathepsin L isolated from human liver vs calpain I
T3 construct: cathepsin L—isolated from human liver (Calbiochem #219402); purchased Calbiochem 219402; host or cells: human liver (tissue-derived)
Method in brief: (§3)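 cat B 0.25 nM + Z-Phe-Arg-AMC 100 μM; cat L 1 nM + Z-Phe-Arg-AMC 2 μM; cat S 0.5 nM (E. coli-expressed) + Z-Val-Val-Arg-AMC 20 μM. 50 mM MES pH 6.0, 2.5 mM L-Cys, RT. Ex 390/em 460, kinetic; Ki app = Cheng-Prusoff from IC50, mean of 2–4 curves.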

cathepsin S = target: T4, cathepsin S (Homo sapiens, UniProt P25774); test: Cathepsin S enzyme inhibition in vitro (kinetic fluorescence assay); conditions: recombinant human cathepsin S vs calpain I
T4 construct: purchased Calbiochem 219343; host or cells: E. coli
Method in brief: as §3

T4 sequence (P25774 115-331): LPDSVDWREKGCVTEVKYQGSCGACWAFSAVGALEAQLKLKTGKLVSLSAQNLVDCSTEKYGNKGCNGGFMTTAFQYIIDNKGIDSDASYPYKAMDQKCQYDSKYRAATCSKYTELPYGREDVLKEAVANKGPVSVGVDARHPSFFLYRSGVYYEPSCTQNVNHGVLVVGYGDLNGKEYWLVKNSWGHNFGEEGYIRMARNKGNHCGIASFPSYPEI
T3 sequence (P07711 114-333): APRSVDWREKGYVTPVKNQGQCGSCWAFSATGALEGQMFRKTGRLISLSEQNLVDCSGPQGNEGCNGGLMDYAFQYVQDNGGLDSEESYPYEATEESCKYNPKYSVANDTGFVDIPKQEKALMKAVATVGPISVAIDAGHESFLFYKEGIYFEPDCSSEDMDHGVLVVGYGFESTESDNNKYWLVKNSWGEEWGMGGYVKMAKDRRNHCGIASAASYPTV

| Compound | Sel cat. B: Ki(cathepsin B)/Ki(calpain) ratio (cathepsin B) | Sel cat. K: Ki(cathepsin K)/Ki(calpain) ratio (cathepsin K) | Sel cat. L: Ki(cathepsin L)/Ki(calpain) ratio (cathepsin L) | Sel cat. S: Ki(cathepsin S)/Ki(calpain) ratio (cathepsin S) |
| --- | --- | --- | --- | --- |
| NC(=O)C(=O)C(Cc1ccccc1)NC(=O)c1cccnc1-n1ccc(-c2ccccc2)n1 (centres unmarked) [Example 5, N-(3-Amino-1-benzyl-2,3-dioxopropyl)-2-(3-phenyl-1H-pyrazol-1-yl)nicotinamide] | + (+ means 10≦Ki(cathepsin B)/Ki(calpain)<30) | + (+ means 10≦Ki(cathepsin K)/Ki(calpain)<30) | ++ (++ means a Ki(cathepsin L)/Ki(calpain) ratio of ≧50) | ++ (++ means a Ki(cathepsin S)/Ki(calpain) ratio of ≧100) |
| NC(=O)C(=O)C(Cc1ccccc1)NC(=O)c1cccnc1-n1ccc(-c2ccccn2)n1 (centres unmarked) [Example 35, N-(3-Amino-1-benzyl-2,3-dioxopropyl)-2-(3-pyridin-2-yl-1H-pyrazol-1-yl)nicotinamide] | + (+ means 10≦Ki(cathepsin B)/Ki(calpain)<30) | + (+ means 10≦Ki(cathepsin K)/Ki(calpain)<30) | ++ (++ means a Ki(cathepsin L)/Ki(calpain) ratio of ≧50) | ++ (++ means a Ki(cathepsin S)/Ki(calpain) ratio of ≧100) |
| NC(=O)C(=O)C(Cc1ccccc1)NC(=O)c1cccnc1-n1ccc(-c2ccc(F)cc2)n1 (centres unmarked) [Example 38, N-(3-Amino-1-benzyl-2,3-dioxopropyl)-2-[3-(4-fluorophenyl)-1H-pyrazol-1-yl]nicotinamide] | + (+ means 10≦Ki(cathepsin B)/Ki(calpain)<30) | + (+ means 10≦Ki(cathepsin K)/Ki(calpain)<30) | ++ (++ means a Ki(cathepsin L)/Ki(calpain) ratio of ≧50) | ++ (++ means a Ki(cathepsin S)/Ki(calpain) ratio of ≧100) |
| COc1ccc(-c2ccn(-c3ncccc3C(=O)NC(Cc3ccccc3)C(=O)C(N)=O)n2)cc1 (centres unmarked) [Example 48, N-(3-Amino-1-benzyl-2,3-dioxopropyl)-2-[3-(4-methoxyphenyl)-1H-pyrazol-1-yl]nicotinamide] | + (+ means 10≦Ki(cathepsin B)/Ki(calpain)<30) | + (+ means 10≦Ki(cathepsin K)/Ki(calpain)<30) | ++ (++ means a Ki(cathepsin L)/Ki(calpain) ratio of ≧50) | ++ (++ means a Ki(cathepsin S)/Ki(calpain) ratio of ≧100) |
| NC(=O)C(=O)C(Cc1ccc(Cl)cc1)NC(=O)c1cccnc1-n1ccc(-c2ccccc2)n1 (centres unmarked) [Example 50, N-[3-Amino-1-(4-chlorobenzyl)-2,3-dioxopropyl]-2-(3-phenyl-1H-pyrazol-1-yl)nicotinamide] | + (+ means 10≦Ki(cathepsin B)/Ki(calpain)<30) | + (+ means 10≦Ki(cathepsin K)/Ki(calpain)<30) | + (+ means 30≦Ki(cathepsin L)/Ki(calpain)<50) | + (+ means 50≦Ki(cathepsin S)/Ki(calpain)<100) |
| NC(=O)C(=O)C(Cc1ccccc1)NC(=O)c1cccnc1-n1ccc(-c2ccccc2Cl)n1 (centres unmarked) [Example 54, N-(3-Amino-1-benzyl-2,3-dioxopropyl)-2-[3-(2-chlorophenyl)-1H-pyrazol-1-yl]nicotinamide] | ++ (++ means a Ki(cathepsin B)/Ki(calpain) ratio of ≧30) | ++ (++ means a Ki(cathepsin K)/Ki(calpain) ratio of ≧30) | ++ (++ means a Ki(cathepsin L)/Ki(calpain) ratio of ≧50) | ++ (++ means a Ki(cathepsin S)/Ki(calpain) ratio of ≧100) |
| NC(=O)C(=O)C(Cc1ccccc1)NC(=O)c1cccnc1-n1ccc(-c2cccs2)n1 (centres unmarked) [Example 55, N-(3-Amino-1-benzyl-2,3-dioxopropyl)-2-[3-(2-thienyl)-1H-pyrazol-1-yl]nicotinamide] | + (+ means 10≦Ki(cathepsin B)/Ki(calpain)<30) | + (+ means 10≦Ki(cathepsin K)/Ki(calpain)<30) | ++ (++ means a Ki(cathepsin L)/Ki(calpain) ratio of ≧50) | ++ (++ means a Ki(cathepsin S)/Ki(calpain) ratio of ≧100) |
| NC(=O)C(=O)C(Cc1ccccc1)NC(=O)c1cccnc1-n1ccc(-c2cccc(N3CCOCC3)c2)n1 (centres unmarked) [Example 58, N-(3-Amino-1-benzyl-2,3-dioxopropyl)-2-[3-(3-morpholin-4-ylphenyl)-1H-pyrazol-1-yl]nicotinamide] | + (+ means 10≦Ki(cathepsin B)/Ki(calpain)<30) | + (+ means 10≦Ki(cathepsin K)/Ki(calpain)<30) | ++ (++ means a Ki(cathepsin L)/Ki(calpain) ratio of ≧50) | ++ (++ means a Ki(cathepsin S)/Ki(calpain) ratio of ≧100) |
| N#Cc1cnc(-n2ccc(-c3ccccc3)n2)c(C(=O)NC(Cc2ccccc2)C(=O)C(N)=O)c1 (centres unmarked) [Example 82, N-(3-Amino-1-benzyl-2,3-dioxopropyl)-5-cyano-2-(3-phenyl-1H-pyrazol-1-yl)nicotinamide] | ++ (++ means a Ki(cathepsin B)/Ki(calpain) ratio of ≧30) | ++ (++ means a Ki(cathepsin K)/Ki(calpain) ratio of ≧30) | ++ (++ means a Ki(cathepsin L)/Ki(calpain) ratio of ≧50) | – |
| COc1ccc(OC)c(-c2ccn(-c3ncccc3C(=O)NC(Cc3ccccc3)C(=O)C(N)=O)n2)c1 (centres unmarked) [Example 151, N-[3-Amino-2,3-dioxo-1-(phenylmethyl)propyl]-2-{3-[2,5-bis(methyloxy)phenyl]-1H-pyrazol-1-yl}pyridine-3-carboxamide] | ++ (++ means a Ki(cathepsin B)/Ki(calpain) ratio of ≧30) | ++ (++ means a Ki(cathepsin K)/Ki(calpain) ratio of ≧30) | ++ (++ means a Ki(cathepsin L)/Ki(calpain) ratio of ≧50) | – |

— patent US7799809B2, “Carboxamide compounds and their use as calpain inhibitors” (Abbott GmbH & Co. KG, priority 2006, dated 2010)
